Measured values: US20260207753A1, “PROTAC DEGRADATION OF FACTORS PAX3 AND FOXO1” (THE RESEARCH INSTITUTE AT NATIONWIDE CHILDREN'S HOSPITAL, priority 2022, published 2026)
“Also recorded” adds a separate entry of the source.

Tests used:
BRD9 = molecular target: T1, BRD9 (Homo sapiens, UniProt Q9H8M2); assay: Abundance of GBAF subunit BRD9 in soluble nuclear extracts; type: cell-based; settings: 1 μM, 24 hours
T1 construct: Soluble nuclear extracts were prepared to assess target degradation as well as abundance of additional SWI/SNF complex subunits; endogenous in cells; host or cells: RH4, RH30, RD, CTR rhabdomyosarcoma cells
T1 sequence (Q9H8M2 1-597): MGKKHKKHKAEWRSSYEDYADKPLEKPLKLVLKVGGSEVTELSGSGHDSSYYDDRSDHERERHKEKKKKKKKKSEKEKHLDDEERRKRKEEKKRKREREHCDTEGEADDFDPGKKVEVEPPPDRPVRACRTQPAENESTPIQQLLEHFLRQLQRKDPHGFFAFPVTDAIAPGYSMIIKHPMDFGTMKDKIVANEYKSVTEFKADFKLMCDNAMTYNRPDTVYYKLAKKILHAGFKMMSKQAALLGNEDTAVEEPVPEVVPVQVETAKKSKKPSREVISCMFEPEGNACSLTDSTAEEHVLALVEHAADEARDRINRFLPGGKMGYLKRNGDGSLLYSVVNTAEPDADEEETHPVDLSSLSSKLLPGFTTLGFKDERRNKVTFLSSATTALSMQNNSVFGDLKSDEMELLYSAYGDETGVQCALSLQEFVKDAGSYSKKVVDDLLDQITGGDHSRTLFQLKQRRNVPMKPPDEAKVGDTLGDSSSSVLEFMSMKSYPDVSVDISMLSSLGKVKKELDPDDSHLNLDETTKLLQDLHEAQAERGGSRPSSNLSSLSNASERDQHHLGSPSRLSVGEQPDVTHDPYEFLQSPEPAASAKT
Procedure: (§1) The inventors investigated the effect of a number of PROTAC inhibitors on fusion-positive and negative RMS cell models. The experiment was designed as follows. Fusion-positive RMS (RH4 and RH30) and fusion-negative RMS (RD and CTR) cells were treated with DMSO or 1 μM dBRD9, DL-ds2-4, or SMARCA4-31 for 24 hours. Soluble nuclear extracts were prepared to assess target degradation as well as abundance of additional SWI/SNF complex subunits and the transcription factor FOXO1 (wild-type and PAX3-FOXO1 fusion).

PBRM1 = molecular target: T2, PBRM1 (Homo sapiens, UniProt Q86U86); assay: Abundance of PBAF subunit PBRM1 in soluble nuclear extracts; type: cell-based; settings: 24 hours; for degradation of dedicated PBAF subunit PBRM1: 1 μM, soluble nuclear extracts
T2 construct: Soluble nuclear extracts were prepared to assess target degradation as well as abundance of additional SWI/SNF complex subunits; endogenous in cells; host or cells: RH4 (washout experiment) and other RMS cells
Procedure: as §1
(§2) The inventors also investigated whether the effect of the compounds was reversible. Fusion-positive RMS RH4 cells were treated for 24 hours with DMSO including […] dBRD9, DL-ds2-4, or SMARCA4-31. After the treatment period cells were collected or washed extensively to remove the compound and incubated in untreated growth media for an additional 24-hour period. Soluble nuclear extracts were prepared to assess target degradation and recovery.

FOXO1 = molecular target: T3, FOXO1 (Homo sapiens, UniProt Q12778); assay: Western blot of soluble nuclear extracts: wild-type FOXO1 loss in CTR cells; type: cell-based; settings: 1 μM, 24 hours
T3 construct: In CTR cells, which only express the wild-type FOXO1; endogenous in cells; host or cells: CTR (SMS-CTR) cells
Procedure: as §1

SMS-CTR cells = assay: Incucyte cell proliferation, growth-curve AUC dose-response, SMS-CTR; type: cell-based; settings: SMS-CTR (fusion-negative), 96-hour, AUC of growth curve, initial data, FIG. 7A
Procedure: (§3) In FIG. 7A, RH4 (a PAX3-FOXO1 fusion-positive rhabdomyosarcoma cell line) and SMS-CTR (a PAX3-FOXO1 fusion-negative rhabdomyosarcoma cell line) cells were treated with increasing concentrations of SMARCA4-31 or DL-dS2-4 for a 96-hour period, and cell proliferation was monitored on an Incucyte® system. […] We explored why RH4 and SMS-CTR cells display relatively high sensitivity to PROTAC treatment. The CRBN gene expresses the protein cereblon, a component of an E3 ubiquitin ligase complex. By analyzing CRBN gene expression using RNA-seq from the Cancer Cell Line Encyclopedia (CCLE) database, we show in FIG. 7B, that RH4 and SMS-CTR cells express high levels of CRBN compared to other rhabdomyosarcoma (RMS) cell lines.

SMARCB1 = assay: Abundance of SWI/SNF subunit SMARCB1 in soluble nuclear extracts; type: cell-based; settings: 1 μM, 24 hours
Procedure: as §1

RH4 cells [1] = assay: Incucyte cell proliferation, growth-curve AUC dose-response, RH4; type: cell-based, human; settings: RH4 (fusion-positive), 96-hour, AUC of growth curve, initial data, FIG. 7A
Procedure: as §3

SMARCC1 = assay: Abundance of SWI/SNF subunit SMARCC1 in soluble nuclear extracts; type: cell-based; settings: 1 μM, 24 hours
Procedure: as §1

DPF2 = assay: Abundance of BAF subunit DPF2 in soluble nuclear extracts; type: cell-based; settings: 1 μM, 24 hours
Procedure: as §1

PAX3-FOXO1 fusion = assay: Western blot of soluble nuclear extracts: PAX3-FOXO1 fusion loss in RH4 cells; type: cell-based, human; settings: 24 hours; for loss of the PAX3-FOXO1 fusion: 1 μM; for PROTAC concentration at which PAX3-FOXO1 is fully depleted: FIG. 6A
Procedure: as §1, §2
(§4) In FIG. 6A, RH4 cells were treated for 24 hours with the indicated dose of SMARCA4-31 (labeled S4-31) or DL-dS2-4 (labeled S2-4).
(§5) In FIG. 6B, RH4 cells were treated with 125 nM SMARCA4-31 (labeled S4-31) or 250 nM DL-dS2-4 (labeled S2-4) for the indicated time.

SMARCA4 and SMARCA2 = assay: Western blot of soluble nuclear extracts: ATPase (SMARCA4/SMARCA2) degradation in RH4 / rhabdomyosarcoma cells; type: cell-based, human; settings: for PROTAC exposure time until ATPase depletion is observed: 125 nM SMARCA4-31 or 250 nM DL-dS2-4, FIG. 6B; for dose required for maximal ATPase depletion: FIG. 6A; for loss of ATPases SMARCA4/SMARCA2: rhabdomyosarcoma cells, 1 μM, 24-hour treatment, western blot
Procedure: as §1, §2, §4, §5

MYOD1 = assay: LC/MS of BAF-associated transcription factors in rhabdomyosarcoma cells: MYOD1; type: cell-based; settings: 1 μM, 24-hour treatment
Description: (§6) In addition to PAX3-FOXO1, depleted core-regulatory transcription factors included MYOD1, an essential factor in rhabdomyosarcoma cell growth.

RH4 cells [2] = assay: Tn5 transposition library fragment length distribution (chromatin accessibility) in RH4 cells; type: cell-based, human; settings: 24 hours, with or without washout and 24-hour recovery, FIG. 5
Procedure: Finally, the inventors determined if the reversible disruption of the SWU/SNF complex results in altered chromatin accessibility. FP-RMS RH4 cells were treated for 24 hours with DMSO or SMARCA4-31. A third group was treated with SMARCA4-31 for 24 hours before washout, and a 24-hour recovery period. 50.000 cells were used. Tn5 transposition followed by Illumina library amplification (15 cycles). Libraries were run on Bioanalyzer to assess fragment length distribution.

PAX3-FOXO1 = molecular target: T4, PAX3-FOXO1 (Homo sapiens, UniProt P23760); assay: LC/MS of BAF-associated transcription factors in rhabdomyosarcoma cells: PAX3-FOXO1; type: cell-based; settings: 1 μM, 24-hour treatment
T4 construct: endogenous in cells
Description: as §6

T3 sequence (Q12778 whole entry): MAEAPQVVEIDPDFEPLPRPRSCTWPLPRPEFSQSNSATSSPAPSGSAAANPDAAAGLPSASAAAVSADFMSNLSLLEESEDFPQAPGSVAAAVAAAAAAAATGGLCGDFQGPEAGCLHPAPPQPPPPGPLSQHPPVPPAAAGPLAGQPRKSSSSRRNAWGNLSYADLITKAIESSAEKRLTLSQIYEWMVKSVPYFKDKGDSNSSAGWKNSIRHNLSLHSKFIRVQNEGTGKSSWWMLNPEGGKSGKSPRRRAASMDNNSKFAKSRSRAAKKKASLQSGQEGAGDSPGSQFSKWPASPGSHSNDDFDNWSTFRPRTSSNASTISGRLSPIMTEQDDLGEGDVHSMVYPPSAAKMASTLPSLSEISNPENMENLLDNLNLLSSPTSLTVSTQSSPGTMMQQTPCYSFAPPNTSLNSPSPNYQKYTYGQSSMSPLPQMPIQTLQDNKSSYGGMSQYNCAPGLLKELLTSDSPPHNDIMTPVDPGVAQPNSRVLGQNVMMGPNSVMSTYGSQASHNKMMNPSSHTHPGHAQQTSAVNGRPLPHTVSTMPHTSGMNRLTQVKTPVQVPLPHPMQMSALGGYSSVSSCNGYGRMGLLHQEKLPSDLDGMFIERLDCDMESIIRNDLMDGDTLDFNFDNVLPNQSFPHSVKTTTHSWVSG
T2 sequence (Q86U86 whole entry): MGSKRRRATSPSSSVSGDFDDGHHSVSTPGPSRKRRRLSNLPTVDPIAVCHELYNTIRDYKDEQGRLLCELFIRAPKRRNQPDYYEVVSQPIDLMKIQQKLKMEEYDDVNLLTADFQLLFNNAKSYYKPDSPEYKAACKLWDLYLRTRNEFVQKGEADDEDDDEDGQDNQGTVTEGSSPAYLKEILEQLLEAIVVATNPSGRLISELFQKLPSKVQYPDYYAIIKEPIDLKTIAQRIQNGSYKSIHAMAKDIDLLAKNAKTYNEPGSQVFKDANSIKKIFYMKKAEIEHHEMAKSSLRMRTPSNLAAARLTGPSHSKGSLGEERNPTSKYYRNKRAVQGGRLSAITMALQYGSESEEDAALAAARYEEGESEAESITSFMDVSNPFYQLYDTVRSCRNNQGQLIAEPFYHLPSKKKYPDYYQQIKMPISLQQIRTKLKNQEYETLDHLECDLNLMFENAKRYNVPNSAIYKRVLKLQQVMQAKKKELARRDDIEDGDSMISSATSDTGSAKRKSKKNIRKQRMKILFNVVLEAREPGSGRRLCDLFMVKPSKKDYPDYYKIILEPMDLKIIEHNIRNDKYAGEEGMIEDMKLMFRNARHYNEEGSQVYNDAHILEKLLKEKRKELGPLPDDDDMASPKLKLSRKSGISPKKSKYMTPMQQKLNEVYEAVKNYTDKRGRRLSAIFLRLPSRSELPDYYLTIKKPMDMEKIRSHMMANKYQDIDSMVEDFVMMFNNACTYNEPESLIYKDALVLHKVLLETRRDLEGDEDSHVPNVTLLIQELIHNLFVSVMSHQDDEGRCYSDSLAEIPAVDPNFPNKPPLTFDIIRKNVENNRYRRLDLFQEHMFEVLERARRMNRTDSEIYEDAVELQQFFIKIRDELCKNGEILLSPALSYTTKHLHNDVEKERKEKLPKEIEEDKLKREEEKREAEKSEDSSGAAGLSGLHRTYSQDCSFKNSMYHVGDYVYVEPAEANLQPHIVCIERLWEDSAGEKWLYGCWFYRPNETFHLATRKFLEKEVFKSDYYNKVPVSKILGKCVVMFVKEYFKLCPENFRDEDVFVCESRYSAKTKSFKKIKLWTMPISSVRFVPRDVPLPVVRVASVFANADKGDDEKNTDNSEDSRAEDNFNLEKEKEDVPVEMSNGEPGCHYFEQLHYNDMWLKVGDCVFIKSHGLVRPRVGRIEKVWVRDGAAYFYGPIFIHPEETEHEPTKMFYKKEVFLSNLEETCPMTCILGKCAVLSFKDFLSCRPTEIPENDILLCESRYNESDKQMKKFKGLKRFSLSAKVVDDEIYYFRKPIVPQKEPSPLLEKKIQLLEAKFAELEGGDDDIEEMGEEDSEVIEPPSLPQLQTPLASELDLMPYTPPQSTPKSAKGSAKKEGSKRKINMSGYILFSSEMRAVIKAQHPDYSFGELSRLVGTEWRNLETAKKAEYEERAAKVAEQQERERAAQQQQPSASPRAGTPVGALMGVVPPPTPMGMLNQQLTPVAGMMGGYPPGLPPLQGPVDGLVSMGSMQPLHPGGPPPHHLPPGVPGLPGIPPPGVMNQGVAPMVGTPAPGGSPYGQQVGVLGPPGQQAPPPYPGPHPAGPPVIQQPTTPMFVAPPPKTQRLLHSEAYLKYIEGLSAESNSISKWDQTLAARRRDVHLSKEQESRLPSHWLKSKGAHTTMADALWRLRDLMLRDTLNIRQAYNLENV
T4 sequence (P23760 with tags, fused parts or gaps limits assumed): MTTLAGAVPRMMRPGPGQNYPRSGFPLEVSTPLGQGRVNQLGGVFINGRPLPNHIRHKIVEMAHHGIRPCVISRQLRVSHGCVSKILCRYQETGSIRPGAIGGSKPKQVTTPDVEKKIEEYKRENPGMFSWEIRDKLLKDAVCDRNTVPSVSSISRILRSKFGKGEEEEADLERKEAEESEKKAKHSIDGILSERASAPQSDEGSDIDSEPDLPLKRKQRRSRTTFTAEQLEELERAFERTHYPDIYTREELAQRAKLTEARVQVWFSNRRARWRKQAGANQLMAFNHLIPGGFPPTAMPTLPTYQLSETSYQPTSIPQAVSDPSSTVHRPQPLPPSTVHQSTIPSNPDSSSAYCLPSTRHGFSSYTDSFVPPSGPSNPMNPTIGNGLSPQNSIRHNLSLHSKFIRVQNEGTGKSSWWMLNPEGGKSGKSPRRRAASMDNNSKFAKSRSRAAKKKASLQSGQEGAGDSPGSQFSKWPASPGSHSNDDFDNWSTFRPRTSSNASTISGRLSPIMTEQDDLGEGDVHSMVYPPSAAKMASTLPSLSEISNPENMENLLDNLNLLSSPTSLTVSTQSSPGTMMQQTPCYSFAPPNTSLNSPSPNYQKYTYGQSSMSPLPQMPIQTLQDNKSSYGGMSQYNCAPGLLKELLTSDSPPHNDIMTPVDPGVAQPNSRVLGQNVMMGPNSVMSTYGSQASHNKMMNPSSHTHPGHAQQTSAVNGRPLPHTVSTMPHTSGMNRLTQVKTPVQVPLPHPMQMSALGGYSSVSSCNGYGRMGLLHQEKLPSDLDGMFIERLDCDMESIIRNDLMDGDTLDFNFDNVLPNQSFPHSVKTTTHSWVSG

Structure (SMILES)	abundance of GBAF subunit BRD9 (BRD9)	degradation of dedicated PBAF subunit PBRM1 (PBRM1)	loss of wild-type FOXO1 (FOXO1)	efficacy in inhibiting cell growth (concentration range) (SMS-CTR cells)	abundance of core subunit SMARCB1 (SMARCB1)	efficacy in inhibiting cell growth (concentration range) (RH4 cells [1])	degradation of core SWI/SNF subunit SMARCC1 (SMARCC1)	abundance of BAF subunit DPF2 (DPF2)	loss of the PAX3-FOXO1 fusion (PAX3-FOXO1 fusion)	PROTAC concentration at which PAX3-FOXO1 is fully depleted (PAX3-FOXO1 fusion)	PROTAC exposure time until ATPase depletion is observed (SMARCA4 and SMARCA2; RH4 cells)	dose required for maximal ATPase depletion (SMARCA4 and SMARCA2; RH4 cells, 24 hours)	loss of ATPases SMARCA4/SMARCA2 (SMARCA4 and SMARCA2)	extent of PBRM1 degradation, reversibility experiment (PBRM1; RH4 cells, 1 µM, FIG. 4)	MYOD1 depletion by LC/MS (MYOD1)	chromatin accessibility (fragment length signatures) (RH4 cells [2])	PAX3-FOXO1 depletion by LC/MS (PAX3-FOXO1)	extent of PAX3-FOXO1 degradation, reversibility experiment (PAX3-FOXO1 fusion; 1 µM, FIG. 4)	extent of SMARCA4 degradation, reversibility experiment (SMARCA4 and SMARCA2; RH4 cells, 24 hours, 1 µM, FIG. 4)
O=C1CCC(N2C(=O)c3cccc(NCCCCNC(=O)c4cccc(C#Cc5cc(NC(=O)Nc6ccnc(Cl)c6)ccn5)c4)c3C2=O)C(=O)N1 (racemic) [DL-dS2-4]	remained intact	specific degradation	FOXO1 loss; also recorded: concurrent loss	sub-micromolar efficacy	remained intact	sub-micromolar efficacy	degraded	remained intact	loss of the PAX3-FOXO1 fusion; also recorded: concurrent loss	62.5 nM	approximately 20 hours	250 nM	concurrent loss	–	–	–	–	–	–
O=C1CCC(N2C(=O)c3ccc(NCCCCCCCCOCCc4cccc(N5C[C@H]6C[C@@H]5CN6/C=C/C(=O)c5ccccc5O)c4)cc3C2=O)C(=O)N1 (some centres unmarked) [SMARCA4-31]	remained intact	specific degradation	FOXO1 loss; also recorded: concurrent loss	sub-micromolar efficacy	remained intact	sub-micromolar efficacy	degraded	remained intact	loss of the PAX3-FOXO1 fusion; also recorded: concurrent loss	62.5 nM	approximately 20 hours	125 nM	concurrent loss	More complete degradation	depleted	alterations to the accessibility landscape	depleted	More complete degradation	More complete degradation
